Assay results from patent US11136327B2, “Macrocycles as factor XIA inhibitors” (Bristol-Myers Squibb Company, priority 2010, dated 2021).
Read-outs that look alike come from different tables or passages of the source. Values belong to the molecule of their own block, whether it stands above or below them.

Key:
[1] = not given; remark: listed apart in the source
[2] = biological target: purified human Factor XIa (Homo sapiens (Human), UniProt P03951); test: Factor XIa enzyme inhibition assay (chromogenic substrate S-2366); type: biochemical; conditions: substrate S-2366, pH 7.4
Description: The effectiveness of compounds of the present invention as inhibitors of the coagulation Factors XIa, VIIa, IXa, Xa, XIIa, plasma kallikrein or thrombin, can be determined using a relevant purified serine protease, respectively, and an appropriate synthetic substrate. The rate of hydrolysis of the chromogenic or fluorogenic substrate by the relevant serine protease was measured both in the absence and presence of compounds of the present invention. […] A decrease in the rate of absorbance or fluorescence change in the presence of inhibitor is indicative of enzyme inhibition. Such methods are known to one skilled in the art. The results of this assay are expressed as the inhibitory constant, Ki.
Values of Ki were determined by allowing the protease to react with the substrate in the presence of the inhibitor. Reactions were allowed to go for periods of 20-180 minutes (depending on the protease) and the velocities (rate of absorbance or fluorescence change versus time) were measured. The following relationships were used to calculate Ki values: (vo−vs)/vs=I/(Ki(1+S/Km)) for a competitive inhibitor with one binding site; or vs/vo=A+((B−A)/1+((IC50/(I)n))); and Ki=IC50/(1+S/Km) for a competitive inhibitor where: […]

[3] = from C=CCCOc1ccccc1-c1cn(COCC[Si](C)(C)C)c([C@H](CC=C)NC(=O)OC(C)(C)C)n1, rcm bond, 12-membered ring, Grubbs II (1 eq)/pTsOH, DCM, 1.02 mM, 40.0 °C, 1.0 h
[4] = from C=CCCCc1ccccc1-c1cn(COCC[Si](C)(C)C)c([C@H](CC=C)NC(=O)OC(C)(C)C)n1, rcm bond, 12-membered ring, Grubbs II (0.4 eq)/pTsOH, DCM, 0.97 mM, 40.0 °C, 1.0 h

Sequence of purified human Factor XIa (P03951 388-625): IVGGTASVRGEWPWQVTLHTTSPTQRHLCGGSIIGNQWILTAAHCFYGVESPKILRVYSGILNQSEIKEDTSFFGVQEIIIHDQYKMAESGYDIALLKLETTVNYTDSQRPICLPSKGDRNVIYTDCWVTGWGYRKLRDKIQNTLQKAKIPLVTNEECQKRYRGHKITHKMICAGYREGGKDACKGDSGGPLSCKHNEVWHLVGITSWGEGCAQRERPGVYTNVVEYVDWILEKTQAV
Sequence of purified human Factor XIa (P03951 19-387 partner): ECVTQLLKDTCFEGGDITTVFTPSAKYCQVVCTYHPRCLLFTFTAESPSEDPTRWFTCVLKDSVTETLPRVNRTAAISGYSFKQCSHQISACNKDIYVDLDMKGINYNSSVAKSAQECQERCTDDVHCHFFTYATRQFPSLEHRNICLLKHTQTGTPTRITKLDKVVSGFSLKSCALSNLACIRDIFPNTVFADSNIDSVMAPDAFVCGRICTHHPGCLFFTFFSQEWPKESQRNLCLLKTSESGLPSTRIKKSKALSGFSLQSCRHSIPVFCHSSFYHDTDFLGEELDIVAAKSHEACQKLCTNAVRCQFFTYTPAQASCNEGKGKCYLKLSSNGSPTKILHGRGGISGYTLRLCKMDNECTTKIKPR

Molecule: COC(=O)Nc1ccc2c(c1)CCCN(C)C(=O)C[C@H](NC(=O)OC(C)(C)C)c1nc-2cn1COCC[Si](C)(C)C
ring closure, isolated yield (from CNCCCc1cc(NC(=O)OC)ccc1-c1cn(COCC[Si](C)(C)C)c([C@H](CC(=O)O)NC(=O)OC(C)(C)C)n1, amide bond, 12-membered ring, BOP/DIEA/DMAP, DCM/DMF, 8.6 mM, 25.0 °C, 2.0 h): 39.4%

Molecule: COC(=O)Nc1ccc2c(c1)N[C@@H](C(=O)OC)CC=CC[C@H](NC(=O)OC(C)(C)C)c1nc-2cn1COCC[Si](C)(C)C
ring closure, isolated yield (from C=CC[C@H](NC(=O)OC(C)(C)C)c1nc(-c2ccc(NC(=O)OC)cc2N[C@H](CC=C)C(=O)OC)cn1COCC[Si](C)(C)C, rcm bond, 12-membered ring, Grubbs II (0.4 eq), DCE, 40.0 mM, 120.0 °C, 0.33 h): 30%

Molecule: COC(=O)Nc1ccc2c(c1)NC(=O)CC/C=C/CC(NC(=O)OC(C)(C)C)c1cc-2nnc1Cl (centres unmarked)
ring closure, isolated yield (from C=CCCC(=O)Nc1cc(NC(=O)OC)ccc1-c1cc(C(CC=C)NC(=O)OC(C)(C)C)c(Cl)nn1, rcm bond, 13-membered ring, Grubbs II, DCM, 6.6 mM, 1.0 h): 56%

Molecule: COC(=O)Nc1ccc2c(c1)NC(=O)CCN(C(=O)OC(C)(C)C)C[C@H](NC(=O)OCc1ccccc1)c1nc-2cn1COCC[Si](C)(C)C
ring closure, isolated yield (from COC(=O)Nc1ccc(-c2cn(COCC[Si](C)(C)C)c([C@H](CN(CCC(=O)O)C(=O)OC(C)(C)C)NC(=O)OCc3ccccc3)n2)c(N)c1, amide bond, 12-membered ring, BOP/DIEA, DCM/DMF, 0.93 mM, 25.0 °C, 5.0 h): 87%

Molecule: COC(=O)c1ccc2c(c1)OCCNC(=O)CC(NC(=O)OC(C)(C)C)c1cc-2nnc1Cl (centres unmarked)
ring closure, yield after HPLC ([1]; from COC(=O)c1ccc(-c2cc(C(CC(=O)O)NC(=O)OC(C)(C)C)c(Cl)nn2)c(OCCN)c1, amide bond, 12-membered ring, BOP/DIEA/DMAP, DCM/DMF, 1.28 mM, 2.5 h): 15.3%

Ki [2]: 21 nM
Molecule: COC(=O)Nc1ccc2c(c1)N[C@@H](C(=O)NCc1ccccn1)CCCC[C@H](NC(=O)/C=C/c1cc(Cl)ccc1-n1cnnn1)c1cc-2ccn1 [II-58]

Molecule: COC(=O)Nc1ccc2c(c1)NC(=O)CC/C=C/C[C@H](NC(=O)OC(C)(C)C)c1cc-2ccn1
ring closure, yield after HPLC ([1]; from C=CCCC(=O)Nc1cc(NC(=O)OC)ccc1-c1ccnc([C@H](CC=C)NC(=O)OC(C)(C)C)c1, rcm bond, 13-membered ring, Grubbs II/pTsOH, DCM, 0.99 mM, 40.0 °C, 1.5 h): 75%

Molecule: COC(=O)Nc1ccc2c(c1)N(C(=O)C(F)(F)F)[C@@H](C(=O)OC)CC=CC[C@H](NC(=O)OC(C)(C)C)c1nc-2cn1COCC[Si](C)(C)C
ring closure, isolated yield (from C=CC[C@H](NC(=O)OC(C)(C)C)c1nc(-c2ccc(NC(=O)OC)cc2N(C(=O)C(F)(F)F)[C@H](CC=C)C(=O)OC)cn1COCC[Si](C)(C)C, rcm bond, 12-membered ring, Grubbs II (15 mol%), DCE, 37.3 mM, 84.0 °C, 15.0 h): 37%

Molecule: CC(C)(C)OC(=O)N[C@H]1C/C=C/CCOc2ccccc2-c2cn(COCC[Si](C)(C)C)c1n2
ring closure, isolated yield [3]: 20%

Molecule: CC(C)(C)OC(=O)N[C@H]1C/C=C/CCCc2ccccc2-c2cn(COCC[Si](C)(C)C)c1n2
ring closure, isolated yield [4]: 45.3%

Molecule: (S)-Methyl N-4-(2-(1-(tert-butoxycarbonylamino)but-3-enyl)-1-((2-(trimethylsilyl)ethoxy)methyl)-1H-imidazol-4-yl)-3-(4-methylpent-4-enamido)phenylmethanimidoperoxoate
ring closure, isolated yield (the molecule shown is the open-chain precursor, rcm bond, 13-membered ring, Grubbs II (0.2 eq), microwave, DCE, 105.0 mM, 120.0 °C): 34.6%

Ki [2]: 1060 nM
Molecule: COC(=O)Nc1ccc2c(c1)NC(=O)CC/C=C/CC(NC(=O)/C=C/c1cc(Cl)ccc1-n1cnnn1)c1cc-2nnc1Cl (centres unmarked) [Example 89, {(E)-17-Chloro-15-[(E)-3-(5-chloro-2-tetrazol-1-yl-phenyl)-acryloylamino]-9-oxo-8,18,19-triaza-tricyclo[14.3.1.0^2,7]icosa-1(20),2,4,6,12,16,18-heptaen-5-yl}-carbamic Acid Methyl Ester]

Molecule: CC(C)(C)OC(=O)N[C@H]1C/C=C\CCCc2ccccc2-c2cn(COCC[Si](C)(C)C)c1n2
ring closure, isolated yield [4]: 17.6%

Molecule: CC(C)(C)OC(=O)N[C@H]1C/C=C\CCOc2ccccc2-c2cn(COCC[Si](C)(C)C)c1n2
ring closure, isolated yield [3]: 9%

Molecule: CC(C)(C)OC(=O)N[C@H]1C/C=C\CCC(=O)Nc2ccccc2C2=NN=C1O2 (mixture of isomers)
ring closure, yield after HPLC ([1]; from C=CCCC(=O)Nc1ccccc1-c1nnc([C@H](CC=C)NC(=O)OC(C)(C)C)o1, rcm bond, 13-membered ring, Grubbs II, DCM, 4.8 mM, 75.0 °C, 1.5 h): 27%

Molecule: COC(=O)Nc1ccc2c(c1)NC(=O)C/C=C/CC(NC(=O)OC(C)(C)C)c1cc-2nc(C)n1 (centres unmarked)
ring closure, isolated yield (from C=CCC(=O)Nc1cc(NC(=O)OC)ccc1-c1cc(C(CC=C)NC(=O)OC(C)(C)C)nc(C)n1, rcm bond, 12-membered ring, Grubbs II (0.4 eq)/HCl, DCM, 0.5 mM, 40.0 °C, 4.0 h): 22%

Molecule: COC(=O)Nc1ccc2c(c1)NC(=O)CC/C=C/C[C@H](NC(=O)OC(C)(C)C)C1=NN=C2O1
ring closure, isolated yield (from -[5-((S)-1-tert-Butoxycarbonylamino-but-3-enyl)-1,3,4-oxadiazol-2-yl]-3-pent-4-enoylamino-phenyl}-carbamic acid methyl ester, rcm bond, 13-membered ring, Grubbs II (0.36 eq), DCE, 0.61 mM, 75.0 °C): 19.1%
